Results as given in ChEMBL document CHEMBL5303573, “Mapping human microbiome drug metabolism by gut bacteria and their genes” (Nature, 2019).

Key:
[1] = The drug is tested on Bifidobacterium longum subsp. Infantis strain: CCUG52486 for biotransformation. The drug concentrations were measured before and after a 12-h incubation by liquid-chromatography-coupled mass spectrometry (LC–MS); settings: 2 µM
[2] = The drug is tested on Collinsella intestinalis strain: DSM13280 for biotransformation. The drug concentrations were measured before and after a 12-h incubation by liquid-chromatography-coupled mass spectrometry (LC–MS); settings: 2 µM
[3] = The drug is tested on Bacteroides cellulosilyticus strain: DSM14838 for biotransformation. The drug concentrations were measured before and after a 12-h incubation by liquid-chromatography-coupled mass spectrometry (LC–MS); settings: 2 µM
[4] = The drug is tested on Bacteroides fragilis strain: HMW615 for biotransformation. The drug concentrations were measured before and after a 12-h incubation by liquid-chromatography-coupled mass spectrometry (LC–MS); settings: 2 µM
[5] = The drug is tested on Bacteroides fragilis strain: ATCC43859 for biotransformation. The drug concentrations were measured before and after a 12-h incubation by liquid-chromatography-coupled mass spectrometry (LC–MS); settings: 2 µM
[6] = The drug is tested on Blautia hansenii strain: DSM20583 for biotransformation. The drug concentrations were measured before and after a 12-h incubation by liquid-chromatography-coupled mass spectrometry (LC–MS); settings: 2 µM
[7] = The drug is tested on Clostridium asparagiforme strain: DSM15981 for biotransformation. The drug concentrations were measured before and after a 12-h incubation by liquid-chromatography-coupled mass spectrometry (LC–MS); format: ADME; design: dose 2 uM, timepoint 0 vs 12 hours; settings: enterocloster asparagiformis, 2 µM
[8] = The drug is tested on Clostridium sp. strain: fecal isolate for biotransformation. The drug concentrations were measured before and after a 12-h incubation by liquid-chromatography-coupled mass spectrometry (LC–MS); settings: 2 µM
[9] = The drug is tested on Enterococcus faecalis strain: V583 for biotransformation. The drug concentrations were measured before and after a 12-h incubation by liquid-chromatography-coupled mass spectrometry (LC–MS); settings: 2 µM
[10] = The drug is tested on Eubacterium hallii strain: DSM3353 for biotransformation. The drug concentrations were measured before and after a 12-h incubation by liquid-chromatography-coupled mass spectrometry (LC–MS); settings: anaerobutyricum hallii, 2 µM
[11] = The drug is tested on Ruminococcus gnavus strain: ATCC29149 for biotransformation. The drug concentrations were measured before and after a 12-h incubation by liquid-chromatography-coupled mass spectrometry (LC–MS); settings: mediterraneibacter gnavus, 2 µM
[12] = The drug is tested on Providencia rettgeri strain: DSM1131 for biotransformation. The drug concentrations were measured before and after a 12-h incubation by liquid-chromatography-coupled mass spectrometry (LC–MS); format: ADME; design: dose 2 uM, timepoint 0 vs 12 hours; settings: 2 µM
[13] = The drug is tested on Providencia stuartii strain: ATCC25827 for biotransformation. The drug concentrations were measured before and after a 12-h incubation by liquid-chromatography-coupled mass spectrometry (LC–MS); settings: 2 µM
[14] = bacteroides eggerthii, 12 h, 2 µM
Description: The drug is tested on Bacteroides eggerthii strain: DSM20697 for biotransformation. The drug concentrations were measured before and after a 12-h incubation by liquid-chromatography-coupled mass spectrometry (LC–MS)

[15] = bacteroides stercoris, 12 h, 2 µM
Description: The drug is tested on Bacteroides stercoris strain: ATCC43183 for biotransformation. The drug concentrations were measured before and after a 12-h incubation by liquid-chromatography-coupled mass spectrometry (LC–MS)

[16] = bacteroides thetaiotaomicron, 12 h, 2 µM
Description: The drug is tested on Bacteroides thetaiotaomicron strain: VPI-5482 for biotransformation. The drug concentrations were measured before and after a 12-h incubation by liquid-chromatography-coupled mass spectrometry (LC–MS)

[17] = segatella copri, 12 h, 2 µM
Description: The drug is tested on Prevotella copri strain: DSM18205 for biotransformation. The drug concentrations were measured before and after a 12-h incubation by liquid-chromatography-coupled mass spectrometry (LC–MS)

[18] = enterocloster bolteae, 12 h, 2 µM
Description: The drug is tested on Clostridium bolteae strain: ATCCBAA-613 for biotransformation. The drug concentrations were measured before and after a 12-h incubation by liquid-chromatography-coupled mass spectrometry (LC–MS)

[19] = limosilactobacillus reuteri cf48-3a, 12 h, 2 µM
Description: The drug is tested on Lactobacillus reuteri CF48-3A strain: BEI HM-102 for biotransformation. The drug concentrations were measured before and after a 12-h incubation by liquid-chromatography-coupled mass spectrometry (LC–MS)

[20] = victivallis vadensis, 12 h, 2 µM
Description: The drug is tested on Victivallis vadensis strain: ATCC BAA-548 for biotransformation. The drug concentrations were measured before and after a 12-h incubation by liquid-chromatography-coupled mass spectrometry (LC–MS)

Row | SMILES | Bacterial Biotransformation [1] | Bacterial Biotransformation [2] | Bacterial Biotransformation [3] | Bacterial Biotransformation [4] | Bacterial Biotransformation [5] | Bacterial Biotransformation [6] | Bacterial Biotransformation [7] | Bacterial Biotransformation [8] | Bacterial Biotransformation [9] | Bacterial Biotransformation [10] | Bacterial Biotransformation [11] | Bacterial Biotransformation [12] | Bacterial Biotransformation [13] | Bacterial Biotransformation [14] | Bacterial Biotransformation [15] | Bacterial Biotransformation [16] | Bacterial Biotransformation [17] | Bacterial Biotransformation [18] | Bacterial Biotransformation [19] | Bacterial Biotransformation [20]
1 | CC(=O)Nc1ccc(OC(C)=O)cc1 [DIACETAMATE] | Compound metabolized | Compound metabolized | Compound metabolized | Compound metabolized | Compound metabolized | Compound NOT metabolized | Compound metabolized | Compound NOT metabolized | Compound metabolized | Compound metabolized | Compound metabolized | Compound metabolized | Compound metabolized | Compound metabolized | Compound metabolized | Compound metabolized | Compound metabolized | Compound metabolized | Compound metabolized | Compound metabolized
2 | CCOc1ccc2nc(S(N)(=O)=O)sc2c1 [ETHOXZOLAMIDE] | Compound metabolized | Compound metabolized | Compound metabolized | Compound NOT metabolized | Compound NOT metabolized | Compound metabolized | Compound metabolized | Compound metabolized | Compound metabolized | Compound metabolized | Compound metabolized | Compound metabolized | Compound metabolized | Compound metabolized | Compound metabolized | Compound metabolized | Compound metabolized | Compound metabolized | Compound metabolized | Compound metabolized
3 | CC(Oc1c(Cl)cccc1Cl)C1=NCCN1 (stereo not given) [LOFEXIDINE] | Compound metabolized | Compound NOT metabolized | Compound metabolized | Compound NOT metabolized | Compound metabolized | Compound metabolized | Compound metabolized | Compound metabolized | Compound NOT metabolized | Compound metabolized | Compound metabolized | Compound metabolized | Compound metabolized | Compound metabolized | Compound metabolized | Compound metabolized | Compound metabolized | Compound metabolized | Compound metabolized | Compound metabolized
4 | CC[C@@H](CO)NC(=O)[C@@H]1C=C2c3cccc4c3c(cn4C)C[C@H]2N(C)C1.O=C(O)/C=C\C(=O)O [METHYSERGIDE MALEATE] | Compound metabolized | Compound NOT metabolized | Compound metabolized | Compound NOT metabolized | Compound NOT metabolized | Compound metabolized | Compound metabolized | Compound metabolized | Compound metabolized | Compound metabolized | Compound metabolized | Compound metabolized | Compound metabolized | Compound metabolized | Compound metabolized | Compound metabolized | Compound metabolized | Compound metabolized | Compound metabolized | Compound metabolized
